{"source": "ChEMBL document CHEMBL3351221", "about": "“Synthetic derivatives of aromatic abietane diterpenoids and their biological activities” (Eur J Med Chem, 2014)", "key": {"[1]": {"biological_target": "Fibroblast growth factor receptor 1 (Homo sapiens, UniProt P11362)", "sequence (P11362 whole entry)": "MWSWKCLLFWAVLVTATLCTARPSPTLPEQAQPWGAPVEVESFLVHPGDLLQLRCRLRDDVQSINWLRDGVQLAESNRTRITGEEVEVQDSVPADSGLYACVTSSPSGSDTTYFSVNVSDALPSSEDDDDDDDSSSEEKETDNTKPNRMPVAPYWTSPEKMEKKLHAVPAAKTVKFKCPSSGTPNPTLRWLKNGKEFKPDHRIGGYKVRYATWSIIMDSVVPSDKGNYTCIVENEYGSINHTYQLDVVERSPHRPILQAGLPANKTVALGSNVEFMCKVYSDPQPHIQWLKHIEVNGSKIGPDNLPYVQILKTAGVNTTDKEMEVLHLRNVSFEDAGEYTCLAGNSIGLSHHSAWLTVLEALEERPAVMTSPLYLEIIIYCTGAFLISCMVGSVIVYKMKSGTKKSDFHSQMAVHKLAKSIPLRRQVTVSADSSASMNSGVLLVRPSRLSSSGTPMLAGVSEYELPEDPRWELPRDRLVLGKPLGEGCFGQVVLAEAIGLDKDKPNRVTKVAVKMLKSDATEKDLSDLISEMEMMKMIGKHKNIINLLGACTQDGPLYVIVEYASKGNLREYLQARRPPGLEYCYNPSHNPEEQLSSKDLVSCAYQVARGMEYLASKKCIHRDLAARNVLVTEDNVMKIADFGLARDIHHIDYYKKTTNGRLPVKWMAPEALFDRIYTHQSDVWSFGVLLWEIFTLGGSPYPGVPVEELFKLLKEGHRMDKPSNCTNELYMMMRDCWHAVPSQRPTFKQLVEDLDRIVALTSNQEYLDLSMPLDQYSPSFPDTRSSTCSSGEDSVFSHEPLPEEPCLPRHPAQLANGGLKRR", "experiment": "Inhibition of FGFR1 (unknown origin)"}, "EJ": {"tested_on": "EJ", "experiment": "Cytotoxicity against human EJ cells", "assay_type": "functional, cell-based", "conditions": "pooled result: one value given for 4 cell lines, strains, targets or settings"}, "[2]": {"experiment": "Cytotoxicity against human PC3 cells", "assay_type": "functional, cell-based", "conditions": "PC-3"}, "Androgen receptor": {"biological_target": "Androgen receptor (Homo sapiens, UniProt P10275)", "sequence (P10275 whole entry)": "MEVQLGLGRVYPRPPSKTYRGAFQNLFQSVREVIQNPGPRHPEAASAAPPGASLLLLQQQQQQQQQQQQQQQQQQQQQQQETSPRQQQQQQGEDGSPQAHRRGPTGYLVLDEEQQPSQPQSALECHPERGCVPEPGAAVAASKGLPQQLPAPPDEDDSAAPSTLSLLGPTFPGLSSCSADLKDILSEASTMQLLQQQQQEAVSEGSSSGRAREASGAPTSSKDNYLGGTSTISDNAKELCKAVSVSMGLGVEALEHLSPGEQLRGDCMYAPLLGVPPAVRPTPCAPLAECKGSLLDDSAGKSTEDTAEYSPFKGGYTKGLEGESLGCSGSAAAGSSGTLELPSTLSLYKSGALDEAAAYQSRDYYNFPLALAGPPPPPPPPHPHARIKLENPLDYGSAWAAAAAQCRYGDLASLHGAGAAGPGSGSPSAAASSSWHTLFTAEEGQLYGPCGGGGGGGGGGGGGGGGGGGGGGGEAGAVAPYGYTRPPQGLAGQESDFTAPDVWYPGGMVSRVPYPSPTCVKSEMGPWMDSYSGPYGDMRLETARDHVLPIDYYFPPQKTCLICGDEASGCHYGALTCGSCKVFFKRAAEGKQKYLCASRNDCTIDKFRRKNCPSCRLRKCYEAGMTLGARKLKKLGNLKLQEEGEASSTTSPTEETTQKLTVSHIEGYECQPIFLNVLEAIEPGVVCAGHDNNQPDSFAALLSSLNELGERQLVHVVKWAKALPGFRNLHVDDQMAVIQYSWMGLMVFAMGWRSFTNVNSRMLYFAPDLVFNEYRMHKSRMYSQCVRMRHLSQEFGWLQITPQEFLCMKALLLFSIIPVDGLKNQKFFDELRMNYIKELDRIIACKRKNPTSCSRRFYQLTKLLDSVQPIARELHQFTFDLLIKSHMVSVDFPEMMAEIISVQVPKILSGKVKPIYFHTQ", "experiment": "Binding affinity to androgen receptor (unknown origin)"}, "[3]": {"experiment": "Cytotoxicity against human Hey-1B cells", "assay_type": "functional, cell-based"}, "superoxide anion radical": {"tested_on": "superoxide anion radical", "experiment": "Antioxidant activity assessed as superoxide anion radical scavenging activity relative to untreated control"}, "[4]": {"experiment": "Antioxidant activity assessed as DPPH radical scavenging activity", "assay_type": "physicochemical"}, "A549": {"tested_on": "A549", "experiment": "Cytotoxicity against human A549 cells", "assay_type": "functional, cell-based"}, "[5]": {"experiment": "Cytotoxicity against human HL60 cells", "assay_type": "functional, cell-based", "conditions": "HL-60"}, "[6]": {"experiment": "Cytotoxicity against human SKBR3 cells", "assay_type": "functional, cell-based", "conditions": "SK-BR-3"}, "[7]": {"experiment": "Cytotoxicity against human AZ-521 cells", "assay_type": "functional, cell-based"}}, "data": [{"smiles": "CC(C)c1ccc2c(c1)CC[C@H]1[C@](C)(C/N=C/c3c(O)ccc4ccccc34)CCC[C@]21C", "values": [{"measurement": "IC50", "setting": "[1]", "value": 1.2, "unit": "µM"}]}, {"smiles": "C=CC1CN2CCC1CC2C(NC(=S)NC[C@]1(C)CCC[C@]2(C)c3ccc(C(C)C)cc3CC[C@@H]12)c1ccnc2ccc(OC)cc12", "note": "(some centres not stated)", "values": [{"measurement": "IC50", "setting": "EJ", "value": 2.07, "unit": "µM"}, {"measurement": "IC50", "setting": "[2]", "value": 2.07, "unit": "µM"}]}, {"smiles": "CC(C)c1ccc2c(c1)C(=O)C[C@H]1[C@](C)(CNC(=O)c3ccccc3)CCC[C@]21C", "values": [{"measurement": "IC50", "setting": "[2]", "value": 5.7, "unit": "µg/mL"}, {"measurement": "IC50", "setting": "Androgen receptor", "value": 83.8, "unit": "µM"}, {"measurement": "IC50", "setting": "[3]", "value": 11.3, "unit": "µg/mL"}]}, {"smiles": "CC(C)c1ccc2c(c1)C(=O)C[C@H]1[C@](C)(CNC(=O)c3cc(O)c(O)c(O)c3)CCC[C@]21C", "values": [{"measurement": "inhibition (INH)", "setting": "superoxide anion radical", "value": 38.18, "unit": "%"}, {"measurement": "IC50", "setting": "[4]", "value": 2, "unit": "µg/mL"}]}, {"smiles": "COC(=O)[C@H](Cc1ccc(O)cc1)NC(=O)[C@]1(C)CCC[C@]2(C)c3ccc(C(C)C)cc3CC[C@@H]12", "values": [{"measurement": "IC50", "setting": "A549", "value": 7.1, "unit": "µM"}, {"measurement": "IC50", "setting": "[5]", "value": 2.3, "unit": "µM"}, {"measurement": "IC50", "setting": "[6]", "value": 8.1, "unit": "µM"}, {"measurement": "IC50", "setting": "[7]", "value": 3.9, "unit": "µM"}]}]}
